{"source": "ChEMBL document CHEMBL1201862", "about": "“PubChem BioAssay data set” (2004)", "assay_in_all_cases": "NCI-60 cell line screen, 48 h", "key": {"[1]": {"tested_on": "COLO 205"}, "[2]": {"tested_on": "MDA-MB-231"}, "[3]": {"tested_on": "SNB-19"}, "[4]": {"tested_on": "SK-MEL-2"}, "[5]": {"tested_on": "U-251"}, "[6]": {"tested_on": "SR"}, "[7]": {"tested_on": "Malme-3M"}, "[8]": {"tested_on": "786-0"}, "[9]": {"tested_on": "CCRF-CEM"}, "[10]": {"tested_on": "A549"}, "[11]": {"tested_on": "T47D"}, "[12]": {"tested_on": "IGROV-1"}, "[13]": {"tested_on": "RPMI-8226"}, "[14]": {"tested_on": "UACC-62"}, "[15]": {"tested_on": "SK-OV-3"}, "[16]": {"tested_on": "NCI-H460"}, "[17]": {"tested_on": "MOLT-4"}, "[18]": {"tested_on": "NCI-H522"}, "[19]": {"tested_on": "HCC 2998"}, "[20]": {"tested_on": "SF-268"}, "[21]": {"tested_on": "K562"}, "[22]": {"tested_on": "SW-620"}, "[23]": {"tested_on": "NCI-H226"}, "[24]": {"tested_on": "SK-MEL-28"}, "[25]": {"tested_on": "UO-31"}, "[26]": {"tested_on": "SK-MEL-5"}, "[27]": {"tested_on": "SNB-75"}, "[28]": {"tested_on": "TK-10"}, "[29]": {"tested_on": "LOX IMVI"}, "[30]": {"tested_on": "MCF7"}, "[31]": {"tested_on": "HCT-15"}, "[32]": {"tested_on": "A498"}, "[33]": {"tested_on": "EKVX"}, "[34]": {"tested_on": "MDA-N"}, "[35]": {"tested_on": "HCT-116"}, "[36]": {"tested_on": "OVCAR-8"}, "[37]": {"tested_on": "KM12"}, "[38]": {"tested_on": "OVCAR-5"}, "[39]": {"tested_on": "NCI/ADR-RES"}, "[40]": {"tested_on": "CAKI-1"}, "[41]": {"tested_on": "HT-29"}, "[42]": {"tested_on": "DU-145"}, "[43]": {"tested_on": "RXF 393"}, "[44]": {"tested_on": "SF-295"}, "[45]": {"tested_on": "MDA-MB-435"}, "[46]": {"tested_on": "M14"}, "[47]": {"tested_on": "Hs-578T"}, "[48]": {"tested_on": "SN12C"}, "[49]": {"tested_on": "OVCAR-3"}, "[50]": {"tested_on": "PC-3"}, "[51]": {"tested_on": "ACHN"}, "[52]": {"tested_on": "UACC-257"}, "[53]": {"tested_on": "BT-549"}, "[54]": {"tested_on": "HOP-62"}, "[55]": {"tested_on": "OVCAR-4"}, "[56]": {"tested_on": "NCI-H23"}}, "note": "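The compound was tested at five concentrations on cells cultured in 96-well plates, with a 48-hour exposure period. The concentration for 50% growth inhibition is given as GI50.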 Active and inactive are the calls of the source. Rule as the data show it: active = GI50 up to about 1.1 µM and inactive = higher."}
{"smiles": "CCc1n[nH]c(=O)n1-n1c(C)ccc1C", "values": [{"measurement": "GI50", "setting": "[1]", "result": "> 100 µM (inactive)"}, {"measurement": "GI50", "setting": "[2]", "result": "> 100 µM (inactive)"}, {"measurement": "GI50", "setting": "[3]", "result": "> 100 µM (inactive)"}, {"measurement": "GI50", "setting": "[4]", "result": "> 100 µM (inactive)"}, {"measurement": "GI50", "setting": "[5]", "result": "> 100 µM (inactive)"}, {"measurement": "GI50", "setting": "[6]", "result": "> 100 µM (inactive)"}, {"measurement": "GI50", "setting": "[7]", "result": "> 100 µM (inactive)"}, {"measurement": "GI50", "setting": "[8]", "result": "> 100 µM (inactive)"}, {"measurement": "GI50", "setting": "[9]", "result": "> 100 µM (inactive)"}, {"measurement": "GI50", "setting": "[10]", "result": "> 100 µM (inactive)"}, {"measurement": "GI50", "setting": "[11]", "result": "> 100 µM (inactive)"}, {"measurement": "GI50", "setting": "[12]", "result": "> 100 µM (inactive)"}, {"measurement": "GI50", "setting": "[13]", "result": "> 100 µM (inactive)"}, {"measurement": "GI50", "setting": "[14]", "result": "> 100 µM (inactive)"}, {"measurement": "GI50", "setting": "[15]", "result": "> 100 µM (inactive)"}, {"measurement": "GI50", "setting": "[16]", "result": "> 100 µM (inactive)"}, {"measurement": "GI50", "setting": "[17]", "result": "> 100 µM (inactive)"}, {"measurement": "GI50", "setting": "[18]", "result": "> 100 µM (inactive)"}, {"measurement": "GI50", "setting": "[19]", "result": "> 100 µM (inactive)"}, {"measurement": "GI50", "setting": "[20]", "result": "> 100 µM (inactive)"}, {"measurement": "GI50", "setting": "[21]", "result": "> 100 µM (inactive)"}, {"measurement": "GI50", "setting": "[22]", "result": "> 100 µM (inactive)"}, {"measurement": "GI50", "setting": "[23]", "result": "> 100 µM (inactive)"}, {"measurement": "GI50", "setting": "[24]", "result": "> 100 µM (inactive)"}, {"measurement": "GI50", "setting": "[25]", "result": "> 100 µM (inactive)"}, {"measurement": "GI50", "setting": "[26]", "result": "> 100 µM (inactive)"}, {"measurement": "GI50", "setting": "[27]", "result": "> 100 µM (inactive)"}, {"measurement": "GI50", "setting": "[28]", "result": "> 100 µM (inactive)"}, {"measurement": "GI50", "setting": "[29]", "result": "> 100 µM (inactive)"}, {"measurement": "GI50", "setting": "[30]", "result": "> 100 µM (inactive)"}, {"measurement": "GI50", "setting": "[31]", "result": "> 100", "unit": "µM"}, {"measurement": "GI50", "setting": "[32]", "result": "> 100 µM (inactive)"}, {"measurement": "GI50", "setting": "[33]", "result": "> 100 µM (inactive)"}, {"measurement": "GI50", "setting": "[34]", "result": "> 100 µM (inactive)"}, {"measurement": "GI50", "setting": "[35]", "result": "> 100 µM (inactive)"}, {"measurement": "GI50", "setting": "[36]", "result": "> 100 µM (inactive)"}, {"measurement": "GI50", "setting": "[37]", "result": "> 100 µM (inactive)"}, {"measurement": "GI50", "setting": "[38]", "result": "> 100 µM (inactive)"}, {"measurement": "GI50", "setting": "[39]", "result": "> 100 µM (inactive)"}, {"measurement": "GI50", "setting": "[40]", "result": "> 100 µM (inactive)"}, {"measurement": "GI50", "setting": "[41]", "result": "> 100 µM (inactive)"}, {"measurement": "GI50", "setting": "[42]", "result": "> 100 µM (inactive)"}, {"measurement": "GI50", "setting": "[43]", "result": "> 100 µM (inactive)"}, {"measurement": "GI50", "setting": "[44]", "result": "> 100 µM (inactive)"}, {"measurement": "GI50", "setting": "[45]", "result": "> 100 µM (inactive)"}, {"measurement": "GI50", "setting": "[46]", "result": "> 100 µM (inactive)"}, {"measurement": "GI50", "setting": "[47]", "result": "> 100 µM (inactive)"}, {"measurement": "GI50", "setting": "[48]", "result": "> 100 µM (inactive)"}, {"measurement": "GI50", "setting": "[49]", "result": "> 100 µM (inactive)"}, {"measurement": "GI50", "setting": "[50]", "result": "> 100 µM (inactive)"}, {"measurement": "GI50", "setting": "[51]", "result": "> 100 µM (inactive)"}, {"measurement": "GI50", "setting": "[52]", "result": "> 100 µM (inactive)"}, {"measurement": "GI50", "setting": "[53]", "result": "> 100 µM (inactive)"}, {"measurement": "GI50", "setting": "[54]", "result": "> 100 µM (inactive)"}, {"measurement": "GI50", "setting": "[55]", "result": "> 100 µM (inactive)"}]}
{"smiles": "CCOC(=O)c1cc(=O)oc2c1N(C)c1ncccc1N2", "values": [{"measurement": "GI50", "setting": "[1]", "result": "> 100 µM (inactive)"}, {"measurement": "GI50", "setting": "[2]", "result": "69.5 µM (inactive)"}, {"measurement": "GI50", "setting": "[3]", "result": "> 100 µM (inactive)"}, {"measurement": "GI50", "setting": "[4]", "result": "> 100 µM (inactive)"}, {"measurement": "GI50", "setting": "[5]", "result": "> 100 µM (inactive)"}, {"measurement": "GI50", "setting": "[6]", "result": "63.4 µM (inactive)"}, {"measurement": "GI50", "setting": "[8]", "result": "> 100 µM (inactive)"}, {"measurement": "GI50", "setting": "[10]", "result": "> 100 µM (inactive)"}, {"measurement": "GI50", "setting": "[11]", "result": "> 100 µM (inactive)"}, {"measurement": "GI50", "setting": "[13]", "result": "> 100 µM (inactive)"}, {"measurement": "GI50", "setting": "[14]", "result": "> 100 µM (inactive)"}, {"measurement": "GI50", "setting": "[15]", "result": "> 100 µM (inactive)"}, {"measurement": "GI50", "setting": "[16]", "result": "> 100 µM (inactive)"}, {"measurement": "GI50", "setting": "[17]", "result": "> 100 µM (inactive)"}, {"measurement": "GI50", "setting": "[19]", "result": "> 100 µM (inactive)"}, {"measurement": "GI50", "setting": "[20]", "result": "> 100 µM (inactive)"}, {"measurement": "GI50", "setting": "[21]", "result": "> 100 µM (inactive)"}, {"measurement": "GI50", "setting": "[22]", "result": "> 100 µM (inactive)"}, {"measurement": "GI50", "setting": "[23]", "result": "> 100 µM (inactive)"}, {"measurement": "GI50", "setting": "[24]", "result": "> 100 µM (inactive)"}, {"measurement": "GI50", "setting": "[25]", "result": "50.9 µM (inactive)"}, {"measurement": "GI50", "setting": "[27]", "result": "> 100 µM (inactive)"}, {"measurement": "GI50", "setting": "[28]", "result": "> 100 µM (inactive)"}, {"measurement": "GI50", "setting": "[29]", "result": "> 100 µM (inactive)"}, {"measurement": "GI50", "setting": "[30]", "result": "> 100 µM (inactive)"}, {"measurement": "GI50", "setting": "[31]", "result": "> 100", "unit": "µM"}, {"measurement": "GI50", "setting": "[32]", "result": "> 100 µM (inactive)"}, {"measurement": "GI50", "setting": "[56]", "result": "> 100 µM (inactive)"}, {"measurement": "GI50", "setting": "[34]", "result": "> 100 µM (inactive)"}, {"measurement": "GI50", "setting": "[35]", "result": "> 100 µM (inactive)"}, {"measurement": "GI50", "setting": "[36]", "result": "> 100 µM (inactive)"}, {"measurement": "GI50", "setting": "[37]", "result": "> 100 µM (inactive)"}, {"measurement": "GI50", "setting": "[38]", "result": "> 100 µM (inactive)"}, {"measurement": "GI50", "setting": "[39]", "result": "> 100 µM (inactive)"}, {"measurement": "GI50", "setting": "[40]", "result": "> 100 µM (inactive)"}, {"measurement": "GI50", "setting": "[42]", "result": "> 100 µM (inactive)"}, {"measurement": "GI50", "setting": "[43]", "result": "> 100 µM (inactive)"}, {"measurement": "GI50", "setting": "[44]", "result": "> 100 µM (inactive)"}, {"measurement": "GI50", "setting": "[45]", "result": "> 100 µM (inactive)"}, {"measurement": "GI50", "setting": "[46]", "result": "> 100 µM (inactive)"}, {"measurement": "GI50", "setting": "[47]", "result": "> 100 µM (inactive)"}, {"measurement": "GI50", "setting": "[48]", "result": "> 100 µM (inactive)"}, {"measurement": "GI50", "setting": "[49]", "result": "> 100 µM (inactive)"}, {"measurement": "GI50", "setting": "[50]", "result": "> 100 µM (inactive)"}, {"measurement": "GI50", "setting": "[51]", "result": "86.9 µM (inactive)"}, {"measurement": "GI50", "setting": "[52]", "result": "> 100 µM (inactive)"}, {"measurement": "GI50", "setting": "[53]", "result": "> 100 µM (inactive)"}, {"measurement": "GI50", "setting": "[54]", "result": "> 100 µM (inactive)"}, {"measurement": "GI50", "setting": "[55]", "result": "> 100 µM (inactive)"}]}
